# Experimental data: article PMC11403612, “Preparation and Preclinical Characterization of a Simple Ester for Dual Exogenous Supply of Lactate and Beta-hydroxybutyrate” (Journal of Agricultural and Food Chemistry, 2024)
# What was measured:
# [1] = Extended pharmacokinetics of LaKe in rats (LaKe, lactate, BHB plasma levels); type: in vivo, SD rats
# Experimental: (§1) Animals (SD rats, both male and female, 7–9 weeks) were individually housed from 24 h before dosing until the end of the study. Food was withdrawn the night before initiation of study; following food withdrawal, animals were maintained on glucose water containing 5% w/v glucose and 1% saline to suppress endogenous ketone production throughout the study. Food was returned 8 h post-test article dosing. Animals were monitored for distress or notable changes in behavior during the study. The animals were euthanized by CO2 inhalation 2 h after the last sample collection time point.
# (§2) Blood collection was performed by jugular vein cannulation of each animal and divided into two parts. About 10–15 μL of blood was used for the analysis of glucose by glucometer measurement. About 0.20 mL of blood was collected into prechilled commercial EDTA-K2 tubes containing 5 μL of the esterase inhibitor (100 mM PMSF in ethanol, 40 mg/mL NaF and 120 mg/mL […] in water = 5:95(v/v). All blood samples were placed on wet ice until centrifugation.
# At least 100 μL plasma was collected respectively and transferred into polypropylene tubes with 400 mM TTFA (2-thenoyltrifluoroacetone) in ethanol (plasma:stabilizer = 100:5 (v:v)). The final concentration of TTFA in the plasma sample from each time point was approximately 20 mM. The samples were snap frozen over dry ice and kept at −60 °C or lower until LC-MS/MS analysis for 3-hydroxybutyl 2-hydroxypropanoate (LaKe), lactate, and β-hydroxybutyrate (BHB).
# Calibration curves were constructed by linear regression of the peak area of the pure calibrant samples versus the nominal analyte concentrations and based on eight points. The Lac-Phe concentrations in rat plasma samples were derived from their peak area with reference to the calibration curve.
# Extended pharmacokinetics of LaKe in rats – Detailed protocols for LC-MS/MS analyses 3-hydroxybutyl 2-hydroxypropanoate (LaKe): […]
# 3-hydroxybutyl 2-hydroxypropanoate (LaKe) was detected by SRM. […]
# blood glucose = experiment: Blood glucose in extended pharmacokinetics study; type: in vivo, SD rats; conditions: high-dose LaKe exposure; continuous ingestion of 5% glucose water
# Experimental: as §1, §2
# [2] = Hepatocyte stability of LaKe, rat; type: in vitro ADME; conditions: cryopreserved hepatocytes
# [3] = test system: plasma free fatty acids (FFA); experiment: Plasma free fatty acids after oral LaKe in rats; type: in vivo, Sprague–Dawley rats; conditions: 4.5 g/kg oral
# Experimental: Male Sprague–Dawley rats (300–350g, Taconic, Ry, Denmark) were kept for acclimatization at a constant temperature of 23 °C with a 12 h light-dark cycle and with unlimited access to food and water. All animal handling was in accordance with national guidelines in Denmark and the guidelines from the Directive 2010/63/EU of the European Parliament on the protection of animals used for scientific purposes, and all experiments conformed to Danish Law (Act. No. 1306 of 23/11/2007). The experimental protocol was approved by the Danish Animal Expectorate (2018-15-0201-01475).
# The rats were randomly selected to receive either LaKe (n = 8) or placebo (n = 8). […]
# Concentrations of non-esterified free fatty acids (FFA) were measured using a NEFA-HR(2) kit (Wako, Chemicals Gmbh, Germany). Absorbance was measured by spectrometry (PHERAstar FS, BMG LABTECH, […]
# Quantification of N-L-lactoyl phenylalanine (Lac-Phe) by LC-MS/MS […]
# Pure calibrant samples were prepared from an authentic standard compound (N-L-lactoyl phenylalanine), using the plasma sample preparation method at concentrations equivalent to […] in the original sample. The lower limit of quantification for N-L-lactoyl phenylalanine (Lac-Phe) quantification was estimated to 10 nM. […]
compound,measurement,setting,value
"CC(O)CCOC(=O)C(C)O (stereo not shown) [LaKe, 3-hydroxybutyl 2-hydroxypropanoate]",concentration at 15 min,"[1]; both sexes, SD, rat, plasma, oral, 1.3 g/kg, the lower dose, 15 min",540 nM
same,concentration at 30 min,"[1]; both sexes, SD, rat, plasma, oral, 1.3 g/kg, the lower dose, 30 min",260 nM
same,maximum average plasma level of LaKe,[1]; maximum dose of 12 g/kg,5 µM
same,blood glucose,blood glucose,nonsignificant trend toward lower glucose levels
same,half-life at 0.1 mg/mL,[2],< 30 min
same,maximum suppression of FFA levels,"[3]; 75 min time point, compared to vehicle",> 40%
same,change in plasma free fatty acids compared to vehicle control,[3]; from 15 min until 105 min,decrease
